{"source": "ChEMBL document CHEMBL1201862", "about": "“PubChem BioAssay data set” (2004)", "experiment_in_all_cases": "inhibition of tumour cell growth, NCI panel, 48 h", "key": {"[1]": {"tested_on": "RPMI-8226"}, "[2]": {"tested_on": "UO-31"}, "[3]": {"tested_on": "PC-3"}, "[4]": {"tested_on": "MDA-N"}, "[5]": {"tested_on": "SK-OV-3"}, "[6]": {"tested_on": "A498"}, "[7]": {"tested_on": "OVCAR-3"}, "[8]": {"tested_on": "KM12"}, "[9]": {"tested_on": "UACC-257"}, "[10]": {"tested_on": "HT-29"}, "[11]": {"tested_on": "786-0"}, "[12]": {"tested_on": "SK-MEL-5"}, "[13]": {"tested_on": "NCI-H226"}, "[14]": {"tested_on": "HOP-92"}, "[15]": {"tested_on": "HCT-15"}, "[16]": {"tested_on": "HOP-62"}, "[17]": {"tested_on": "CAKI-1"}, "[18]": {"tested_on": "HCC 2998"}, "[19]": {"tested_on": "MCF7"}, "[20]": {"tested_on": "SNB-19"}, "[21]": {"tested_on": "HL-60"}, "[22]": {"tested_on": "LOX IMVI"}, "[23]": {"tested_on": "U-251"}, "[24]": {"tested_on": "MDA-MB-231"}, "[25]": {"tested_on": "M14"}, "[26]": {"tested_on": "ACHN"}, "[27]": {"tested_on": "OVCAR-4"}, "[28]": {"tested_on": "UACC-62"}, "[29]": {"tested_on": "NCI/ADR-RES"}, "[30]": {"tested_on": "MDA-MB-435"}, "[31]": {"tested_on": "T47D"}, "[32]": {"tested_on": "TK-10"}, "[33]": {"tested_on": "NCI-H23"}, "[34]": {"tested_on": "CCRF-CEM"}, "[35]": {"tested_on": "SW-620"}, "[36]": {"tested_on": "OVCAR-8"}, "[37]": {"tested_on": "SK-MEL-2"}, "[38]": {"tested_on": "HCT-116"}, "[39]": {"tested_on": "MOLT-4"}, "[40]": {"tested_on": "K562"}, "[41]": {"tested_on": "RXF 393"}, "[42]": {"tested_on": "A549"}, "[43]": {"tested_on": "NCI-H522"}, "[44]": {"tested_on": "IGROV-1"}, "[45]": {"tested_on": "DU-145"}, "[46]": {"tested_on": "EKVX"}, "[47]": {"tested_on": "COLO 205"}, "[48]": {"tested_on": "SF-539"}, "[49]": {"tested_on": "OVCAR-5"}, "[50]": {"tested_on": "SF-295"}, "[51]": {"tested_on": "SK-MEL-28"}, "[52]": {"tested_on": "SNB-75"}, "[53]": {"tested_on": "SN12C"}, "[54]": {"tested_on": "Malme-3M"}, "[55]": {"tested_on": "NCI-H460"}, "[56]": {"tested_on": "Hs-578T"}, "[57]": {"tested_on": "SF-268"}}, "note": "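Following 48 hours of exposure in 96-well plates, responses at five concentrations were used to interpolate endpoints linearly. GI50 marks 50% less growth.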 Calls of active or inactive are those of the source. Cut-off read from the data, not from the text of the source: active = GI50 up to about 1.1 µM and inactive = higher."}
{"smiles": "NNC(=O)Nc1cccnc1", "values": [{"measurement": "GI50", "setting": "[1]", "value": "> 100 µM (inactive)"}, {"measurement": "GI50", "setting": "[2]", "value": "> 100 µM (inactive)"}, {"measurement": "GI50", "setting": "[3]", "value": "> 100 µM (inactive)"}, {"measurement": "GI50", "setting": "[4]", "value": "> 100 µM (inactive)"}, {"measurement": "GI50", "setting": "[5]", "value": "> 100 µM (inactive)"}, {"measurement": "GI50", "setting": "[6]", "value": "> 100 µM (inactive)"}, {"measurement": "GI50", "setting": "[7]", "value": "> 100 µM (inactive)"}, {"measurement": "GI50", "setting": "[8]", "value": "> 100 µM (inactive)"}, {"measurement": "GI50", "setting": "[9]", "value": "> 100 µM (inactive)"}, {"measurement": "GI50", "setting": "[10]", "value": "> 100 µM (inactive)"}, {"measurement": "GI50", "setting": "[11]", "value": "> 100 µM (inactive)"}, {"measurement": "GI50", "setting": "[12]", "value": "> 100 µM (inactive)"}, {"measurement": "GI50", "setting": "[13]", "value": "> 100 µM (inactive)"}, {"measurement": "GI50", "setting": "[14]", "value": "> 100 µM (inactive)"}, {"measurement": "GI50", "setting": "[15]", "value": "> 100", "unit": "µM"}, {"measurement": "GI50", "setting": "[16]", "value": "> 100 µM (inactive)"}, {"measurement": "GI50", "setting": "[17]", "value": "> 100 µM (inactive)"}, {"measurement": "GI50", "setting": "[18]", "value": "> 100 µM (inactive)"}, {"measurement": "GI50", "setting": "[19]", "value": "> 100 µM (inactive)"}, {"measurement": "GI50", "setting": "[20]", "value": "> 100 µM (inactive)"}, {"measurement": "GI50", "setting": "[21]", "value": "> 100 µM (inactive)"}, {"measurement": "GI50", "setting": "[22]", "value": "> 100 µM (inactive)"}, {"measurement": "GI50", "setting": "[23]", "value": "> 100 µM (inactive)"}, {"measurement": "GI50", "setting": "[24]", "value": "> 100 µM (inactive)"}, {"measurement": "GI50", "setting": "[25]", "value": "> 100 µM (inactive)"}, {"measurement": "GI50", "setting": "[26]", "value": "> 100 µM (inactive)"}, {"measurement": "GI50", "setting": "[27]", "value": "> 100 µM (inactive)"}, {"measurement": "GI50", "setting": "[28]", "value": "> 100 µM (inactive)"}, {"measurement": "GI50", "setting": "[29]", "value": "> 100 µM (inactive)"}, {"measurement": "GI50", "setting": "[30]", "value": "> 100 µM (inactive)"}, {"measurement": "GI50", "setting": "[31]", "value": "> 100 µM (inactive)"}, {"measurement": "GI50", "setting": "[32]", "value": "> 100 µM (inactive)"}, {"measurement": "GI50", "setting": "[33]", "value": "> 100 µM (inactive)"}, {"measurement": "GI50", "setting": "[34]", "value": "> 100 µM (inactive)"}, {"measurement": "GI50", "setting": "[35]", "value": "> 100 µM (inactive)"}, {"measurement": "GI50", "setting": "[36]", "value": "> 100 µM (inactive)"}, {"measurement": "GI50", "setting": "[37]", "value": "> 100 µM (inactive)"}, {"measurement": "GI50", "setting": "[38]", "value": "> 100 µM (inactive)"}, {"measurement": "GI50", "setting": "[39]", "value": "> 10 µM (inactive)"}, {"measurement": "GI50", "setting": "[40]", "value": "> 100 µM (inactive)"}, {"measurement": "GI50", "setting": "[41]", "value": "> 100 µM (inactive)"}, {"measurement": "GI50", "setting": "[42]", "value": "> 100 µM (inactive)"}, {"measurement": "GI50", "setting": "[43]", "value": "> 100 µM (inactive)"}, {"measurement": "GI50", "setting": "[44]", "value": "> 100 µM (inactive)"}, {"measurement": "GI50", "setting": "[45]", "value": "> 100 µM (inactive)"}, {"measurement": "GI50", "setting": "[46]", "value": "> 100 µM (inactive)"}, {"measurement": "GI50", "setting": "[47]", "value": "> 100 µM (inactive)"}, {"measurement": "GI50", "setting": "[48]", "value": "> 100 µM (inactive)"}, {"measurement": "GI50", "setting": "[49]", "value": "> 100 µM (inactive)"}, {"measurement": "GI50", "setting": "[50]", "value": "> 100 µM (inactive)"}, {"measurement": "GI50", "setting": "[51]", "value": "> 100 µM (inactive)"}, {"measurement": "GI50", "setting": "[52]", "value": "> 100 µM (inactive)"}, {"measurement": "GI50", "setting": "[53]", "value": "> 100 µM (inactive)"}, {"measurement": "GI50", "setting": "[54]", "value": "> 100 µM (inactive)"}]}
{"smiles": "COc1cc2c(cc1OCCOS(C)(=O)=O)N=C[C@@H]1CCCN1C2=O", "values": [{"measurement": "GI50", "setting": "[55]", "value": "97.7 µM (inactive)"}, {"measurement": "GI50", "setting": "[5]", "value": "> 100 µM (inactive)"}, {"measurement": "GI50", "setting": "[8]", "value": "33.9 µM (inactive)"}, {"measurement": "GI50", "setting": "[10]", "value": "36.8 µM (inactive)"}, {"measurement": "GI50", "setting": "[14]", "value": "21.4 µM (inactive)"}, {"measurement": "GI50", "setting": "[18]", "value": "30.7 µM (inactive)"}, {"measurement": "GI50", "setting": "[56]", "value": "27.5 µM (inactive)"}, {"measurement": "GI50", "setting": "[19]", "value": "39 µM (inactive)"}, {"measurement": "GI50", "setting": "[20]", "value": "45.3 µM (inactive)"}, {"measurement": "GI50", "setting": "[21]", "value": "26.9 µM (inactive)"}, {"measurement": "GI50", "setting": "[27]", "value": "22.2 µM (inactive)"}, {"measurement": "GI50", "setting": "[30]", "value": "20.3 µM (inactive)"}, {"measurement": "GI50", "setting": "[31]", "value": "40.7 µM (inactive)"}, {"measurement": "GI50", "setting": "[36]", "value": "32.1 µM (inactive)"}, {"measurement": "GI50", "setting": "[37]", "value": "29.4 µM (inactive)"}, {"measurement": "GI50", "setting": "[39]", "value": "21.9 µM (inactive)"}, {"measurement": "GI50", "setting": "[41]", "value": "29.7 µM (inactive)"}, {"measurement": "GI50", "setting": "[57]", "value": "70.1 µM (inactive)"}, {"measurement": "GI50", "setting": "[42]", "value": "> 100 µM (inactive)"}, {"measurement": "GI50", "setting": "[44]", "value": "27.7 µM (inactive)"}, {"measurement": "GI50", "setting": "[45]", "value": "27.3 µM (inactive)"}, {"measurement": "GI50", "setting": "[46]", "value": "32.7 µM (inactive)"}, {"measurement": "GI50", "setting": "[47]", "value": "24.1 µM (inactive)"}, {"measurement": "GI50", "setting": "[50]", "value": "23.3 µM (inactive)"}, {"measurement": "GI50", "setting": "[51]", "value": "23.8 µM (inactive)"}, {"measurement": "GI50", "setting": "[52]", "value": "54.1 µM (inactive)"}, {"measurement": "GI50", "setting": "[53]", "value": "26 µM (inactive)"}]}
